In the assay the target is CETP (Homo sapiens (Human), UniProt P11597). As to the kind of experiment: In vitro radioactive assay of CETP-catalyzed CE and TG transfer (RTA assay), 95% human serum. The settings on record: RTA assay in 95% human serum; read-out: RTA IC50 (CETP Inhibition). It is filed as biochemical. On the procedure: In Vitro Radioactive Assays of CETP-Catalyzed CE and TG Transfer (RTA Assay)
Reagents and sources are: [3H] cholesteryl oleate (GE #TRK.886), [3H] Triolein (Perkin-Elmer NET-431), Butylated hydroxyl toluene (Aldrich, #D4740-4), DOPC (Sigma, # P6354), Sodium Bromide (Fisher scientific #S255-500), PEG 8000 (Fisher, #BP233-1), and human HDL (Intracel Corp #RP-036).
An in vitro assay for determining IC50's to identify compounds that inhibit CETP transfer activity is performed based on a modification of a published method (Morton and Zilversmit, (1981) A plasma inhibitor of triglyceride and cholesteryl ester transfer activities, J. Biol. Chem. 256(23), 11992-11995). The ability of inhibitors to alter CETP activity is performed using two different assays: one using recombinant CETP and one using an endogenous plasma source of CETP. Both assays measure the transfer of [3H] cholesteryl oleate or [3H] triolein from exogenous LDL to HDL.
Radiolabeled donor particles are generated by first combining 100 μl of 200 μM butylated hydroxyl toluene in CHCl3, 216 μL of 21.57 mM DOPC in EtOH, and either 500 μCi [3H]-triolein (Perkin Elmer #NET-431) or 500 μCi [3H]-cholesteryl oleate (GE #TRK886) in a glass tube. Reagents are mixed, dried under nitrogen, and then resuspended in 2 mL of 50 mM Tris, 27 μM EDTA at pH 7.4. After a brief vortex, the solution is sonicated until clear and mixed with 20 mL of fresh human serum. The mixture is incubated overnight at 37° C. The [3H] labeled LDL substrate is separated at 1.063 g/ml density by sequential ultracentrifugal flotation in NaBr according to the method by (Havel, Eder et al. 1955; Chapman, Goldstein et al. 1981). Once isolated the particles are dialyzed 3× in CETP buffer (50 mM Tris, pH 7.4, 100 mM NaCl, 1 mM EDTA). Human HDL is purchased from Intracel and used as the acceptor particles.
Transfer assays are performed in a 96 or 384-well v-bottom polypropylene plate. For the RTA using recombinant CETP (2% RTA), an assay cocktail is prepared with the final concentrations 128 μg/mL HDL, 20 nM rCETP, 2% human serum, and 1×CETP buffer. 1 μL of each test compound diluted in DMSO is added to 47 μL of assay cocktail per well and incubated at 37° C. for 1 hour. To initiate the transfer reaction, 2 μL radiolabeled LDL is added. After an additional 60 min of incubation at 37° C., the transfer action is terminated by precipitation of LDL with an equal volume of 20% W/V PEG 8000. The plates are centrifuged at 2000 rpm for 30 minutes at 4° C. A 40 μL aliquot of the HDL-containing supernatant is transferred to a Packard Optiplate™ with 200 μL of MicroScint™ 20. After mixing, plates are counted by liquid scintillation. Counts present in the supernatant for blanks (wells containing only HDL acceptor, CETP buffer and DMSO) are subtracted from those containing test compounds and used to correct for non-specific transfer.
For the transfer assay using endogenous CETP from serum (95% RTA), the same procedure is used except that human serum is added such that a final concentration of serum of 95% of the total assay volume is achieved, yielding a concentration of approximately 15 nM endogenous CETP in the assay. This is then combined with HDL and CETP buffer and the reaction proceeds as above and is terminated as described.
Comparison of the counts of samples with inhibitors to an uninhibited (DMSO only) positive control yield a percent inhibition. A plot of percent inhibition vs. log of inhibitor concentration, fit to a Sigmoidal 4 parameter equation is used to calculate IC50.
Starting materials are commercially available or are made using known procedures or as shown below. The examples may be synthesized using the general schemes provided below. The data reported for the examples below were obtained using the RTA assay in 95% human serum.

A word on the IC50: it is the midpoint of a concentration-inhibition curve.

Structures are written as SMILES.

Chain of CETP (P11597 18-493 limits assumed): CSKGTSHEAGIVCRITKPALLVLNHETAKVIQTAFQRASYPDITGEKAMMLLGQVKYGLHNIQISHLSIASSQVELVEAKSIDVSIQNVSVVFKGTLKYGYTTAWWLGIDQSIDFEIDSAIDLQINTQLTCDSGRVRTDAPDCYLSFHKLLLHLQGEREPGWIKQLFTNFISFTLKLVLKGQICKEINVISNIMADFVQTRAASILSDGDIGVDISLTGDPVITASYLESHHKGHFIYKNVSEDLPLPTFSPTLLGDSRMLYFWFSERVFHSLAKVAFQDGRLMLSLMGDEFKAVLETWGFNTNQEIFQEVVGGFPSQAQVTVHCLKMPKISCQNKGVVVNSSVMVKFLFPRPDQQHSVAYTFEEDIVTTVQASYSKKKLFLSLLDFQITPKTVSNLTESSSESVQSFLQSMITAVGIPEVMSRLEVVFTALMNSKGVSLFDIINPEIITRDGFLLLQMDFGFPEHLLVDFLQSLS

As for `COc1ncc(C(C)(O)C(F)(F)F)cc1-c1cnc(N2CC(F)C2)nc1CN1C(=O)O[C@H](c2cc(C(F)(F)F)cc(C(F)(F)F)c2)[C@@H]1C` (mixture of isomers) [Example 16, (4S,5R)-5-[3,5-Bis(trifluoromethyl)phenyl]-3-{[2-(3-fluoroazetidin-1-yl)-5-{2-methoxy-5-[(2RS)-1,1,1-trifluoro-2-hydroxypropan-2-yl]pyridin-3-yl}pyrimidin-4-yl]methyl}-4-methyl-1,3-oxazolidin-2-one], the IC50 was found to be 0.014 µM.

Consider `COc1ncc(-c2sc(C)nc2C)cc1-c1cnc(N2CC(F)C2)nc1CN1C(=O)O[C@H](c2cc(C(F)(F)F)cc(C(F)(F)F)c2)[C@@H]1C` [Example 3, (4S,5R)-5-[3,5-Bis(trifluoromethyl)phenyl]-3-({5-[5-(2,4-dimethyl-1,3-thiazol-5-yl)-2-methoxypyridin-3-yl]-2-(3-fluoroazetidin-1-yl)pyrimidin-4-yl}methyl)-4-methyl-1,3-oxazolidin-2-one], for which the IC50 amounted to 0.003 µM.

Take `COc1ncc(-c2c(C)nn(C)c2C)cc1-c1cnc(N2CC(F)C2)nc1CN1C(=O)O[C@H](c2cc(C(F)(F)F)cc(C(F)(F)F)c2)[C@@H]1C` [Example 6]: the IC50 worked out at 0.003 µM.

Turning to `COc1ncc(-c2c(C)noc2C)cc1-c1cnc(N2CC(F)C2)nc1CN1C(=O)O[C@H](c2cc(C(F)(F)F)cc(C(F)(F)F)c2)[C@@H]1C` [Example 7], the IC50 came out at 0.003 µM.

Consider `COc1ncc(CCC(=O)O)cc1-c1cnc(N2CC(F)C2)nc1CN1C(=O)O[C@H](c2cc(C(F)(F)F)cc(C(F)(F)F)c2)[C@@H]1C` [Example 8], for which the IC50 is 0.092 µM.

Consider `COc1ncc(C(F)(F)F)cc1-c1cnc(N2CC(F)C2)nc1CN1C(=O)O[C@H](c2cc(C(F)(F)F)cc(C(F)(F)F)c2)[C@@H]1C` [Example 9, (4S,5R)-5-[3,5-Bis(trifluoromethyl)phenyl]-3-({2-(3-fluoroazetidin-1-yl)-5-[2-methoxy-5-(trifluoromethyl)pyridin-3-yl]pyrimidin-4-yl}methyl)-4-methyl-1,3-oxazolidin-2-one], for which the IC50 came out at 0.014 µM.

Consider `CCOc1ncc(C(F)(F)F)cc1-c1cnc(N2CC(F)C2)nc1CN1C(=O)O[C@H](c2cc(C(F)(F)F)cc(C(F)(F)F)c2)[C@@H]1C` [Example 10], for which the IC50 stood at 0.012 µM.

With `COc1ncc(C(C)C)cc1-c1cnc(N2CC(F)C2)nc1CN1C(=O)O[C@H](c2cc(F)cc(F)c2)[C@@H]1C` [Example 14, (4S,5R)-5-(3,5-Difluorophenyl)-3-{[2-(3-fluoroazetidin-1-yl)-5-(5-isopropyl-2-methoxypyridin-3-yl)pyrimidin-4-yl]methyl}-4-methyl-1,3-oxazolidin-2-one], the IC50 came out at 0.016 µM.

In the case of `COc1ncc(-c2c(C)n[nH]c2C)cc1-c1cnc(N2CC(F)C2)nc1CN1C(=O)O[C@H](c2cc(C(F)(F)F)cc(C(F)(F)F)c2)[C@@H]1C` [Example 17, (4S,5R)-5-[3,5-Bis(trifluoromethyl)phenyl]-3-({5-[5-(3,5-dimethyl-1H-pyrazol-4-yl)-2-methoxypyridin-3-yl]-2-(3-fluoroazetidin-1-yl)pyrimidin-4-yl}methyl)-4-methyl-1,3-oxazolidin-2-one], the IC50 came out at 0.005 µM.

Take `CCCn1nc(C)c(-c2cnc(OC)c(-c3cnc(N4CC(F)C4)nc3CN3C(=O)O[C@H](c4cc(C(F)(F)F)cc(C(F)(F)F)c4)[C@@H]3C)c2)c1C` [Example 18, (4S,5R)-5-[3,5-Bis(trifluoromethyl)phenyl]-3-({5-[5-(3,5-dimethyl-1-propyl-1H-pyrazol-4-yl)-2-methoxypyridin-3-yl]-2-(3-fluoroazetidin-1-yl)pyrimidin-4-yl}methyl)-4-methyl-1,3-oxazolidin-2-one]: the IC50 was determined as 0.012 µM.

On to `CCn1nc(C)c(-c2cnc(OC)c(-c3cnc(N4CC(F)C4)nc3CN3C(=O)O[C@H](c4cc(C(F)(F)F)cc(C(F)(F)F)c4)[C@@H]3C)c2)c1C` [Example 19], for which the IC50 worked out at 0.009 µM.

With `COc1ncc(-c2c(C)nn(CC#N)c2C)cc1-c1cnc(N2CC(F)C2)nc1CN1C(=O)O[C@H](c2cc(C(F)(F)F)cc(C(F)(F)F)c2)[C@@H]1C` [Example 21], the IC50 came out at 0.018 µM.

For `COc1ncc(-c2c(C)nn(CC(N)=O)c2C)cc1-c1cnc(N2CC(F)C2)nc1CN1C(=O)O[C@H](c2cc(C(F)(F)F)cc(C(F)(F)F)c2)[C@@H]1C` [Example 22], the IC50 came out at 0.022 µM.

Regarding `COc1ncc(-c2c(C)n[nH]c2C)cc1-c1cnc(N2CC(F)(F)C2)nc1CN1C(=O)O[C@H](c2cc(C(F)(F)F)cc(C(F)(F)F)c2)[C@@H]1C` [Example 23, (4S,5R)-5-[3,5-Bis(trifluoromethyl)phenyl]-3-({2-(3,3-difluoroazetidin-1-yl)-5-[5-(3,5dimethyl-1H-pyrazol-4-yl)-2-methoxypyridin-3-yl]pyrimidin-4-yl}methyl)-4-methyl-1,3-oxazolidin-2-one], the IC50 came to 0.015 µM.

As for `COc1ncc(-c2c(C)n[nH]c2C)cc1-c1cnc(N2CC(O)C2)nc1CN1C(=O)O[C@H](c2cc(C(F)(F)F)cc(C(F)(F)F)c2)[C@@H]1C` [Example 24], the IC50 came out at 0.332 µM.

Take `COc1ncc(-c2c(C)n[nH]c2C)cc1-c1cnc(N2CCCC2)nc1CN1C(=O)O[C@H](c2cc(C(F)(F)F)cc(C(F)(F)F)c2)[C@@H]1C` [Example 25]: the IC50 came to 0.02 µM.

Take `COc1ncc(-c2c(C)n[nH]c2C)cc1-c1cnc(N2CCOCC2)nc1CN1C(=O)O[C@H](c2cc(C(F)(F)F)cc(C(F)(F)F)c2)[C@@H]1C` [Example 26]: the IC50 is 0.023 µM.

Turning to `COc1ncc(-c2c(C)n[nH]c2C)cc1-c1cnc(N2CCC2)nc1CN1C(=O)O[C@H](c2cc(C(F)(F)F)cc(C(F)(F)F)c2)[C@@H]1C` [Example 27], the IC50 stood at 0.019 µM.

Take `COc1ncc(C(C)C)cc1-c1cnc(N2CC(F)(F)C2)nc1CN1C(=O)O[C@H](c2cc(C(F)(F)F)cc(C(F)(F)F)c2)[C@@H]1C` [Example 28, (4S,5R)-5-[3,5-Bis(trifluoromethyl)phenyl]-3-{[2-(3,3-difluoroazetidin-1-yl)-5-(5-isopropyl-2-methoxypyridin-3-yl)pyrimidin-4-yl]methyl}-4-methyl-1,3-oxazolidin-2-one]: the IC50 amounted to 0.005 µM.

With `COc1ncc(C(C)C)cc1-c1cnc(N2[C@H](C)CC[C@H]2C)nc1CN1C(=O)O[C@H](c2cc(C(F)(F)F)cc(C(F)(F)F)c2)[C@@H]1C` [Example 29], the IC50 stood at 0.43 µM.

For the molecule `COc1ncc(C(C)C)cc1-c1cnc(N2CCC[C@@H]2C)nc1CN1C(=O)O[C@H](c2cc(C(F)(F)F)cc(C(F)(F)F)c2)[C@@H]1C` [Example 30], the IC50 was found to be 0.018 µM.

`COc1ncc(C(C)C)cc1-c1cnc(N2CCC2)nc1CN1C(=O)O[C@H](c2cc(C(F)(F)F)cc(C(F)(F)F)c2)[C@@H]1C` [Example 31]: the IC50 is 0.005 µM.

Take `COc1ncc(-c2c(C)cc(C(=O)O)cc2C)cc1-c1cnc(N2CC(F)C2)nc1CN1C(=O)O[C@H](c2cc(C(F)(F)F)cc(C(F)(F)F)c2)[C@@H]1C` [Example 32, 4-{5-[4-({(4S,5R)-5-[3,5-Bis(trifluoromethyl)phenyl]-4-methyl-2-oxo-1,3-oxazolidin-3-yl}methyl)-2-(3-fluoroazetidin-1-yl)pyrimidin-5-yl]-6-methoxypyridin-3-yl}-3,5-dimethylbenzoic acid]: the IC50 is 0.007 µM.

These data come from US9353101B2 (Merck Sharp & Dohme Corp., priority 2012, dated 2016).
